Results from patent publication US20050009840A1 (SUGEN, INC., priority 2003, published 2005).
Values joined by “and” are separate entries in the source; they are usually repeats but may differ in a detail not shown here. Equal values may be shown once.

Molecular target: T1, Met kinase domain (GST fusion protein) (Homo sapiens, UniProt P08581)
T1 construct: Purified GST fusion protein containing the Met kinase domain
Experiment: Met transphosphorylation assay (ELISA, poly(glu-tyr) substrate);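 further: Cell-free ELISA with plate-bound poly(Glu:Tyr 4:1) phosphorylated by GST-fused Met kinase domain plus ATP and Mn2+, phosphotyrosine detected by anti-phosphotyrosine antibody with HRP and ABTS read-out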
Assay type: biochemical
Conditions: Table 2; read-out: Met IC50

T1 sequence (P08581 1078-1345 limits assumed): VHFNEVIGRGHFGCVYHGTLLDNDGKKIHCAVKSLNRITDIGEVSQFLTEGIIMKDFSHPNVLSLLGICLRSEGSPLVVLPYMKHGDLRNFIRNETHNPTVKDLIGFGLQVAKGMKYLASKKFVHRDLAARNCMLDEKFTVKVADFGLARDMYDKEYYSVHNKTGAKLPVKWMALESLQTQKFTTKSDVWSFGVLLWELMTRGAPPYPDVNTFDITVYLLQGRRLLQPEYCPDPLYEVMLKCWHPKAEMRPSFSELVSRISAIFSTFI

Which IC50 does the source give for `CN(C)[C@H]1CCN(C(=O)c2ccc(-c3cnc(N)c(OCc4c(F)ccc(F)c4Cl)c3)cc2)C1` [Example I-217, {4-[6-Amino-5-(2-chloro-3,6-difluoro-benzyloxy)-pyridin-3-yl]-phenyl}-[(3S)-3-dimethylamino-pyrrolidin-1-yl]-methanone] here?
The IC50 was 120 nM.

How did the IC50 turn out when `Nc1ncc(-c2ccc(C(=O)N3CC[C@@H](N)C3)cc2)cc1OCc1c(F)ccc(F)c1Cl` [Example I-218, {4-[6-Amino-5-(2-chloro-3,6-difluoro-benzyloxy)-pyridin-3-yl]-phenyl}-[(3R)-3-amino-pyrrolidin-1-yl]-methanone] was run?
The IC50 was 53 nM.

For `Nc1ncc(-c2ccc(C(=O)N3CC[C@H](N)C3)cc2)cc1OCc1c(F)ccc(F)c1Cl` [Example I-219, {4-[6-Amino-5-(2-chloro-3,6-difluoro-benzyloxy)-pyridin-3-yl]-phenyl}-[(3S)-3-amino-pyrrolidin-1-yl]-methanone], which IC50 is on record?
Its IC50 is 95 nM.

Which IC50 does the source give for `CN1CCC(NC(=O)c2ccc(-c3cnc(N)c(OCc4c(F)ccc(F)c4Cl)c3)cc2)CC1` [Example I-220, 4-[6-Amino-5-(2-chloro-3,6-difluoro-benzyloxy)-pyridin-3-yl]-N-(1-methyl-piperidin-4-yl)-benzamide] here?
The IC50 was 110 nM.

With `Nc1ncc(-c2ccc(C(=O)NCCN3CCCC3)cc2)cc1OCc1c(F)ccc(F)c1Cl` [Example I-221] as the molecule, how does the IC50 read?
Its IC50 is 180 nM.

With `Nc1ncc(-c2ccc(C(=O)NCCCN3CCCC3)cc2)cc1OCc1c(F)ccc(F)c1Cl` [Example I-222] as the molecule, how does the IC50 read?
The IC50 was 190 nM.

How did the IC50 turn out when `Nc1ncc(-c2ccc(C(=O)NCCN3CCOCC3)cc2)cc1OCc1c(F)ccc(F)c1Cl` [Example I-223] was run?
Its IC50 is 165 nM.

How did the IC50 turn out when `Nc1ncc(-c2ccc(C(=O)NCCCN3CCOCC3)cc2)cc1OCc1c(F)ccc(F)c1Cl` [Example I-224, 4-[6-Amino-5-(2-chloro-3,6-difluoro-benzyloxy)-pyridin-3-yl]-N-(3-morpholin-4-yl-propyl)-benzamide] was run?
Its IC50 is 280 nM.

Which IC50 does the source give for `Nc1ncc(-c2cccc(C(=O)O)c2)cc1OCc1c(F)ccc(F)c1Cl` [Example I-225, 3-[6-Amino-5-(2-chloro-3,6-difluoro-benzyloxy)-pyridin-3-yl]-benzoic acid] here?
The IC50 was 3700 nM and 600 nM.

For `CN1CCN(C(=O)c2cccc(-c3cnc(N)c(OCc4c(F)ccc(F)c4Cl)c3)c2)CC1` [Example I-226, {3-[6-Amino-5-(2-chloro-3,6-difluoro-benzyloxy)-pyridin-3-yl]-phenyl}-(4-methyl-piperazin-1-yl)-methanone], which IC50 is on record?
Its IC50 is 68 nM.

With `Nc1ncc(-c2cccc(C(=O)N3CCC(N)CC3)c2)cc1OCc1c(F)ccc(F)c1Cl` [Example I-228, {3-[6-Amino-5-(2-chloro-3,6-difluoro-benzyloxy)-pyridin-3-yl]-phenyl}-(4-amino-piperidin-1-yl)-methanone] as the molecule, how does the IC50 read?
Its IC50 is 230 nM.

For `CN(C)[C@H]1CCN(C(=O)c2cccc(-c3cnc(N)c(OCc4c(F)ccc(F)c4Cl)c3)c2)C1` [Example I-231, {-[6-Amino-5-(2-chloro-3,6-difluoro-benzyloxy)-pyridin-3-yl]-phenyl}-[(3S)-3-dimethylamino-pyrrolidin-1-yl]-methanone], which IC50 is on record?
The IC50 was 128 nM.

`Nc1ncc(-c2cccc(C(=O)N3CC[C@@H](N)C3)c2)cc1OCc1c(F)ccc(F)c1Cl` [Example I-232, {3-[6-Amino-5-(2-chloro-3,6-difluoro-benzyloxy)-pyridin-3-yl]-phenyl}-[(3R)-3-amino-pyrrolidin-1-yl]-methanone] was tested. Which IC50 did it give?
The IC50 was 120 nM.

How did the IC50 turn out when `Nc1ncc(-c2cccc(C(=O)N3CC[C@H](N)C3)c2)cc1OCc1c(F)ccc(F)c1Cl` [Example I-233, {3-[6-Amino-5-(2-chloro-3,6-difluoro-benzyloxy)-pyridin-3-yl]-phenyl}-[(3S)-amino-pyrrolidin-1-yl]-methyanone] was run?
The IC50 was 120 nM.

How did the IC50 turn out when `Nc1ncc(-c2cccc(C(=O)NCCN3CCCC3)c2)cc1OCc1c(F)ccc(F)c1Cl` [Example I-235, 3-[6-Amino-5-(2-chloro-3,6-difluoro-benzyloxy)-pyridin-3-yl]-N-(2-pyrrolidin-1-yl-ethyl)-benzamide] was run?
The IC50 was 260 nM.

For `Nc1ncc(-c2cccc(C(=O)NCCCN3CCCC3)c2)cc1OCc1c(F)ccc(F)c1Cl` [Example I-236, 3-[6-Amino-5-(2-chloro-3,6-difluoro-benzyloxy)-pyridin-3-yl]-N-(3-pyrrolidin-1-yl-propyl)-benzamide], which IC50 is on record?
The IC50 was 280 nM.

How did the IC50 turn out when `Nc1ncc(-c2cccc(C(=O)NCCN3CCOCC3)c2)cc1OCc1c(F)ccc(F)c1Cl` [Example I-237, 3-[6-Amino-5-(2-chloro-3,6-difluoro-benzyloxy)-pyridin-3-yl]-N-(2-morpholin-4-yl-ethyl)-benzamide] was run?
Its IC50 is 350 nM.

With `Nc1ncc(-c2cccc(C(=O)NCCCN3CCOCC3)c2)cc1OCc1c(F)ccc(F)c1Cl` [Example I-238, 3-[6-Amino-5-(2-chloro-3,6-difluoro-benzyloxy)-pyridin-3-yl]-N-(3-morpholin-4-yl-propyl)-benzamide] as the molecule, how does the IC50 read?
The IC50 was 350 nM.

For `CC(=O)N1CCN(CCNC(=O)c2cccc(-c3cnc(N)c(OCc4c(F)ccc(F)c4Cl)c3)c2)CC1` [Example I-239, N-[2-(4-Acetyl-piperazin-1-yl)-ethyl]-3-[6-amino-5-(2-chloro-3,6-difluoro-benzyloxy)-pyridin-3-yl]-benzamide], which IC50 is on record?
The IC50 was 100 nM.

How did the IC50 turn out when `Nc1ncc(-c2ccc(N3CCCS3(=O)=O)cc2)cc1OCc1c(F)ccc(F)c1Cl` [Example I-240, 3-(2-Chloro-3,6-difluoro-benzyloxy)-5-[4-(1,1-dioxo-1λ^6-isothiazolidin-1-yl)-phenyl]-pyridin-2-ylamine] was run?
The IC50 was 100 nM.

How did the IC50 turn out when `Nc1ncc(-c2ccc(N3CCCS3(=O)=O)cc2)cc1OCc1c(Cl)cccc1Cl` [Example I-241] was run?
The IC50 was 67 nM.

How did the IC50 turn out when `Nc1ncc(-c2ccc(N3CCCS3(=O)=O)cc2)cc1OCc1c(F)cccc1C(F)(F)F` [Example I-242, 5-[4-(1,1-Dioxo-1λ^6-isothiazolidin-2-yl)-phenyl]-3-(2-fluoro-6-trifluoromethyl-benzyloxy)-pyridin-2-ylamine] was run?
Its IC50 is 140 nM.

For `CCN(CC)CCS(=O)(=O)Nc1ccc(-c2cnc(N)c(OCc3c(F)ccc(F)c3Cl)c2)cc1` [Example I-243, 2-diethylamino-ethanesulfonic acid {4-[6-amino-5-(2-chloro-3,6-difluoro-benzyloxy)-pyridin-3-yl]-phenyl)amide], which IC50 is on record?
Its IC50 is 43 nM.

For `Nc1ncc(-c2ccc(NS(=O)(=O)CCNC3CC3)cc2)cc1OCc1c(F)ccc(F)c1Cl` [Example I-244, 2-Cydopropylamino-ethanesulfonic acid {4-[6-amino-5-(2-chloro-3,6-difluoro-benzyloxy)-pyridin-3-yl]-phenyl}-amide], which IC50 is on record?
The IC50 was 81 nM.

With `Nc1ncc(-c2ccc(NS(=O)(=O)CCN3CCCC3)cc2)cc1OCc1c(F)ccc(F)c1Cl` [Example I-245] as the molecule, how does the IC50 read?
The IC50 was 82 nM.

How did the IC50 turn out when `Nc1ncc(-c2ccc(NS(=O)(=O)CCN3CCC(O)CC3)cc2)cc1OCc1c(F)ccc(F)c1Cl` [Example I-246, 2-(4-Hydoxy-piperidin-1-yl)-ethanesulfonic acid {4-[6-amino-5-(2-chloro-3,6-difluoro-benzyloxy)-pyridin-3-yl]-phenyl}-amide] was run?
Its IC50 is 135 nM.

How did the IC50 turn out when `Nc1ncc(-c2ccc(NS(=O)(=O)CCN3CCOCC3)cc2)cc1OCc1c(F)ccc(F)c1Cl` [Example I-247, 2-Morpholin-4-yl-ethanesulfonic acid {4-[6-amino-5-(2-chloro-3,6-difluoro-benzyloxy)-pyridin-3-yl]-phenyl}-amide] was run?
Its IC50 is 310 nM.

`Nc1ncc(-c2ccc(NS(=O)(=O)CCN3CCCCC3)cc2)cc1OCc1c(F)ccc(F)c1Cl` [Example I-248, 2-Pipendin-1-yl-ethanesulfonic acid {4-[6-amino-5-(2-chloro-3,6-difluoro-benzyloxy)-pyridin-3-yl]-phenyl}-amide] was tested. Which IC50 did it give?
The IC50 was 114 nM.

With `CN(C)CCS(=O)(=O)Nc1ccc(-c2cnc(N)c(OCc3c(F)ccc(F)c3Cl)c2)cc1` [Example I-249, 2-Dimethylamino-ethanesulfonic acid {4-[6-amino-5-(2-chloro-3,6-difluoro-benzyloxy)-pyridin-3-yl]-phenyl}-amide] as the molecule, how does the IC50 read?
The IC50 was 98 nM.

For `CC(=O)N1CCN(CCS(=O)(=O)Nc2ccc(-c3cnc(N)c(OCc4c(F)ccc(F)c4Cl)c3)cc2)CC1` [Example I-250, 2-(4-Acetyl-piperazin-1-yl)-ethanesulfonic acid {4-[6-amino-5-(2-chloro-3,6-difluoro-benzyloxy)-pyridin-3-yl]-phenyl}-amide], which IC50 is on record?
The IC50 was 420 nM.

How did the IC50 turn out when `Nc1ncc(-c2ccc(NS(=O)(=O)CCNCC3CC3)cc2)cc1OCc1c(F)ccc(F)c1Cl` [Example I-251, 2-(Cyclopropylmethyl-amino)-ethanesulfonic acid {4-[6-amino-5-(2-chloro-3,6-difluoro-benzyloxy)-pyridin-3-yl]-phenyl}-amide] was run?
Its IC50 is 75 nM.

`Nc1ncc(-c2ccc(NS(=O)(=O)CCN3CC[C@@H](O)C3)cc2)cc1OCc1c(F)ccc(F)c1Cl` [Example I-252, 2-[(3R)-3-Hydroxy-pyrrolidin-1-yl]-ethanesulfonic acid {4-[6-amino-5-(2-chloro-3,6-difluoro-benzyloxy)-pyridin-3-yl]-phenyl}-amide] was tested. Which IC50 did it give?
The IC50 was 125 nM.

With `Nc1ncc(-c2ccc(NS(=O)(=O)CCN3CCC[C@H]3CO)cc2)cc1OCc1c(F)ccc(F)c1Cl` [Example I-253, 2-[(2S)-2-Hydroxymethyl-pyrrolidin-1-yl]-ethanesulfonic acid {4-[6-amino-5-(2-chloro-3,6-difluoro-benzyloxy)-pyridin-3-yl]-phenyl}-amide] as the molecule, how does the IC50 read?
The IC50 was 97 nM.

Which IC50 does the source give for `Nc1ncc(-c2ccc(NS(=O)(=O)CCN3CCN(C(=O)CO)CC3)cc2)cc1OCc1c(F)ccc(F)c1Cl` [Example I-254, 2-[4-(2-Hydroxy-acetyl)-piperazin-1-yl]-ethanesulfonic acid {4-[6-amino-5-(2-chloro-3,6-difluoro-benzyloxy)-pyridin 3-yl]-phenyl}-amide] here?
Its IC50 is 180 nM.

`CC(=O)N1CCN(CCS(=O)(=O)Nc2cccc(-c3cnc(N)c(OCc4c(F)ccc(F)c4Cl)c3)c2)CC1` [Example I-255, 2-(4-Acetyl-piperazin-1-yl)-ethanesulfonic acid {3-[6-amino-5-(2-chloro-3,6-difluoro-benzyloxy)-pyridin-3-yl]-phenyl}-amide] was tested. Which IC50 did it give?
The IC50 was 680 nM.

For `Nc1ncc(-c2cccc(NS(=O)(=O)CCN3CCCC3)c2)cc1OCc1c(F)ccc(F)c1Cl` [Example I-256, 2-Pyrrolidin-1-yl-ethanesulfonic acid {3-[6-amino-5-(2-chloro-3,6-difluoro-benzyloxy)-pyridin-3-yl]-phenyl}-amide], which IC50 is on record?
The IC50 was 230 nM.
